Test results taken from the NIST ThermoML archive (doi:10.1021/je200668a).
Where “and” joins values, the source holds several entries; their conditions need not be identical. Equal entries are not always repeated.

Conditions: Liquid, Pulse Transmission

O [water]
Conditions | speed of sound
252.47 K, 215100 kPa | 1715.3 m/s
252.47 K, 220000 kPa | 1725.1 m/s
252.5 K, 205200 kPa | 1695.9 m/s
252.5 K, 209900 kPa | 1705.2 m/s
252.5 K, 215300 kPa | 1716.8 m/s
252.5 K, 240000 kPa | 1764.3 m/s
252.51 K, 220200 kPa | 1726.7 m/s
252.51 K, 235100 kPa | 1754.9 m/s
252.51 K, 245400 kPa | 1774.8 m/s
252.52 K, 210100 kPa | 1705.8 m/s and 1706 m/s
252.52 K, 244900 kPa | 1773.9 m/s
252.53 K, 200100 kPa | 1685.4 m/s
252.53 K, 204800 kPa | 1695.3 m/s
252.53 K, 215300 kPa | 1716.3 m/s
252.53 K, 225100 kPa | 1735.1 m/s
252.53 K, 230000 kPa | 1745 m/s and 1745.4 m/s
252.53 K, 240100 kPa | 1764.5 m/s
252.54 K, 235200 kPa | 1755.1 m/s
252.54 K, 239200 kPa | 1762.7 m/s
252.54 K, 245000 kPa | 1774.1 m/s
252.55 K, 225000 kPa | 1736.1 m/s
252.56 K, 204900 kPa | 1695.4 m/s
252.57 K, 198900 kPa | 1683.1 m/s
252.57 K, 199400 kPa | 1684.1 m/s
252.57 K, 229900 kPa | 1744.6 m/s
252.57 K, 235200 kPa | 1754.8 m/s
252.59 K, 225100 kPa | 1735.8 m/s
252.61 K, 220300 kPa | 1726.3 m/s
257.59 K, 225300 kPa | 1755 m/s
257.6 K, 175100 kPa | 1654.5 m/s
257.61 K, 199500 kPa | 1703.9 m/s
257.61 K, 275200 kPa | 1847.7 m/s
257.62 K, 274400 kPa | 1845.4 m/s
257.64 K, 250200 kPa | 1801.3 m/s
257.65 K, 224100 kPa | 1752.6 m/s
257.65 K, 276100 kPa | 1848.6 m/s
257.66 K, 199900 kPa | 1705.5 m/s
257.66 K, 299900 kPa | 1889.6 m/s
257.67 K, 249400 kPa | 1799.8 m/s
257.67 K, 299700 kPa | 1889.4 m/s
257.67 K, 300200 kPa | 1890.9 m/s
257.67 K, 374600 kPa | 2011.2 m/s
257.68 K, 325400 kPa | 1932.5 m/s
257.68 K, 375300 kPa | 2012.5 m/s
257.69 K, 176400 kPa | 1657.4 m/s
257.69 K, 199600 kPa | 1704.5 m/s
257.69 K, 249500 kPa | 1800.5 m/s
257.69 K, 349300 kPa | 1972.1 m/s
257.69 K, 350000 kPa | 1972.9 m/s
257.7 K, 176200 kPa | 1657.4 m/s
257.7 K, 224600 kPa | 1754 m/s
257.7 K, 325000 kPa | 1928.5 m/s
257.7 K, 325400 kPa | 1932.5 m/s
262.63 K, 299800 kPa | 1906 m/s
262.65 K, 224800 kPa | 1771.8 m/s
262.68 K, 250600 kPa | 1820.4 m/s
262.71 K, 324500 kPa | 1944.4 m/s
262.71 K, 349400 kPa | 1982.7 m/s
262.71 K, 399900 kPa | 2060 m/s
262.72 K, 274600 kPa | 1861.2 m/s
262.72 K, 374300 kPa | 2023.2 m/s
262.72 K, 424300 kPa | 2095.3 m/s
262.73 K, 249700 kPa | 1816.5 m/s
262.73 K, 299400 kPa | 1903.1 m/s
262.73 K, 324600 kPa | 1945.1 m/s
262.73 K, 349600 kPa | 1984.2 m/s
262.74 K, 124100 kPa | 1574.1 m/s
262.74 K, 199800 kPa | 1725.4 m/s
262.74 K, 299600 kPa | 1903.2 m/s
262.74 K, 425600 kPa | 2097.8 m/s
262.74 K, 449400 kPa | 2130.8 m/s
262.74 K, 450500 kPa | 2133 m/s
262.75 K, 274500 kPa | 1860.6 m/s
262.76 K, 148400 kPa | 1623.4 m/s
262.76 K, 150700 kPa | 1629.8 m/s
262.76 K, 199800 kPa | 1724.8 m/s
262.76 K, 224600 kPa | 1772.3 m/s
262.76 K, 251000 kPa | 1819.5 m/s
262.76 K, 350600 kPa | 1986.4 m/s
262.76 K, 375100 kPa | 2023 m/s
262.76 K, 399300 kPa | 2058.1 m/s
262.77 K, 126300 kPa | 1578.6 m/s
262.77 K, 174800 kPa | 1677.2 m/s and 1676.9 m/s
262.78 K, 399700 kPa | 2061.2 m/s
262.81 K, 149800 kPa | 1626.1 m/s
262.81 K, 200800 kPa | 1728.7 m/s
267.77 K, 199500 kPa | 1744.1 m/s
267.78 K, 100800 kPa | 1554.9 m/s
267.78 K, 300400 kPa | 1918.4 m/s
267.78 K, 349700 kPa | 1997.2 m/s
267.79 K, 149600 kPa | 1649.8 m/s and 1648.8 m/s
267.79 K, 399600 kPa | 2070.9 m/s
267.79 K, 500400 kPa | 2208.8 m/s
267.8 K, 249400 kPa | 1833.6 m/s
267.8 K, 449300 kPa | 2141.5 m/s
267.81 K, 98500 kPa | 1551.2 m/s
267.82 K, 400000 kPa | 2071.6 m/s
267.84 K, 100500 kPa | 1554.9 m/s
267.84 K, 199500 kPa | 1744.6 m/s
267.84 K, 450700 kPa | 2144.1 m/s
267.84 K, 500100 kPa | 2209.7 m/s
267.85 K, 299400 kPa | 1918.6 m/s
267.86 K, 399700 kPa | 2071.2 m/s
267.87 K, 249600 kPa | 1835 m/s
267.87 K, 251100 kPa | 1837.5 m/s
267.87 K, 349700 kPa | 1997.5 m/s
267.87 K, 449200 kPa | 2142.4 m/s
267.88 K, 150800 kPa | 1652.5 m/s
267.88 K, 299600 kPa | 1919.3 m/s
